Measured values published in patent US20170119776A1, “CHIRAL 2,5-DISUBSTITUTED CYCLOPENTANECARBOXYLIC ACID DERIVATIVES AND USE THEREOF” (BAYER PHARMA AKTIENGESELLSCHAFT, priority 2014, published 2017).

target: T1, human macrophage elastase (HME/hMMP-12) (Homo sapiens, UniProt P39900); experiment: In vitro HME inhibition test (standard / high-sensitivity), without BSA; type: biochemical; settings: absence of serum albumin (BSA)
T1 construct: 0.5 nM HME; purchased R&D Systems 917-MP
Source text: The activity of the compounds according to the invention towards HME (MMP-12) is ascertained in an in vitro inhibition test. The HME-mediated amidolytic cleavage of a suitable peptide substrate leads herein to a fluorescent light increase. The signal intensity of the fluorescent light is directly proportional to the enzyme activity. The active concentration of a test compound at which half of the enzyme is inhibited (50% signal intensity of the fluorescent light) is given as IC50 value.
In a 384 hole microtiter plate, in a test volume of in total 41 μl of the test buffer (0.1 M HEPES pH 7.4, 0.15 M NaCl, 0.03 M CaCl2, 0.004 mM ZnCl2, […], 0.005% Brij®), the enzyme (0.5 nM HME; R&D Systems, 917-MP, autocatalytic activation according to the manufacturer's instructions) and the intramolecularly quenched substrate [5 μM Mca-Pro-Leu-Gly-Leu-Glu-Glu-Ala-Dap(Dnp)-NH2; Bachem, M-2670] are incubated in the absence and presence of the test substance (as solution in DMSO) for two hours at 37° C. The fluorescent light intensity of the test batches is measured (excitation 323 nm, emission 393 nm). The IC50 values are ascertained by plotting the fluorescent light intensity against the active ingredient concentration.
If subnanomolar IC values are produced for high potent test substances in the standard HME inhibition test described above, then a modified test is used for their more precise determination. Here, a ten-fold lower enzyme concentration is used (final concentration e.g. 0.05 nM), in order to achieve an increased sensitivity of the test. The incubation time of the test is accordingly chosen to be longer (e.g. 16 hours).
Table 1 below gives the IC50 values from these HME inhibition tests for the working examples of the present invention and also for two structurally related comparison compounds from the prior art (as racemate or separated enantiomers)→(sometimes as average values from several independent individual determinations and rounded to two significant places). The IC50 values were determined for racemates and enantiomers from differently generated DMSO stock solutions. Whereas an automatically created DMSO stock solution from the internal substance logistics was used for racemates by means of a standard method, for enantiomers and for a more precise direct comparison of the enantiomers with one another, in each case a freshly produced, manually prepared DMSO stock solution was used.

T1 sequence (P39900 106-470): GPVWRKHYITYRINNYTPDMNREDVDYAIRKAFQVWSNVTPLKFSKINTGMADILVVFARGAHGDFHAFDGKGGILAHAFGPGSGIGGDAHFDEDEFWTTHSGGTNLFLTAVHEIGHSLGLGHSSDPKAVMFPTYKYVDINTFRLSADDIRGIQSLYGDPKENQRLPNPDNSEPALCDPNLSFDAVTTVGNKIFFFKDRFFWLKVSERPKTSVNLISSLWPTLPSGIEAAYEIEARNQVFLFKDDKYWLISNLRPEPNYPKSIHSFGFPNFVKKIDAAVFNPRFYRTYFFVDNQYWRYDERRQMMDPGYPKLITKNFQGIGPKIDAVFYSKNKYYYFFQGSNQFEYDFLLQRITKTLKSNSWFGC

IC50 | Compound
160 nM | CCCCCOc1ccc(C(=O)CC(CCn2nnc3ccccc3c2=O)C(=O)O)cc1 (single isomer, unassigned; enantiomer 2) [Comparative Example B-3, (−)-4-Oxo-2-[2-(4-oxo-1,2,3-benzotriazin-3(4H)-yl)ethyl]-4-[4-(pentyloxy)phenyl]butanoic acid (enantiomer 2)]
66 nM | O=C(O)[C@@H]1[C@@H](Cn2nnc3ccccc3c2=O)CC[C@H]1C(=O)c1ccc(-c2ccc(Cl)cc2)cc1 (single isomer, unassigned; enantiomer 1) [Comparative Example A-2, (1RS,2RS,5SR)-2-[(4′-chlorobiphenyl-4-yl)carbonyl]-5-[(4-oxo-1,2,3-benzotriazin-3(4H)-yl)methyl]cyclopentanecarboxylic acid (enantiomer 1)]
14 nM | O=C(O)[C@@H]1[C@@H](Cn2nnc3ccccc3c2=O)CC[C@H]1C(=O)c1ccc(OCc2ccccc2)cc1 [Example 3, (−)-(1R,2R,5S)-2-[4-(Benzyloxy)benzoyl]-5-[(4-oxo-1,2,3-benzotriazin-3(4H)-yl)methyl]cyclopentanecarboxylic acid]
